Drawing on patent US12545677B2, “Compounds useful as factor XIa inhibitors” (JANSSEN PHARMACEUTICA NV, priority 2020, dated 2026), this text covers IC50 for two molecules.

Experiment [1] deals with mitochondrial respiration in HepG2 cells. The experiment can be described thus: Seahorse assay, mitochondrial respiration. Format: cell-based. Particulars: Homo sapiens, 0.3-100 μM, read-out: IC50, mitochondrial respiration as measured by spare respiratory capacity. Here is the method: Biological Example 11: Seahorse Assay
(§1) The purpose of this assay was to investigate the effect of the compound of formula (I-A) on mitochondrial respiration in HepG2 cells using the Agilent Seahorse XFe96 analyzer. Cell viability was also determined in HepG2 cells in parallel to the Seahorse assay.
Measurement of mitochondrial respiration in HepG2 Cells: Compound doses were prepared in 100% DMSO and subsequently diluted in assay medium to achieve final solvent concentration of 0.10%. HepG2 cells were plated overnight in a Seahorse plate (Agilent Technologies, Santa Clara, California) at a density of 40,000 cells/well in EMEM containing 10% HI FBS and 1× Pen/Strep cell culture. […] Mitochondrial respiration, quantitated as oxygen consumption rate (OCR), was measured on an Agilent Seahorse XFe96 analyzer using the Seahorse Mito Stress test assay as per the manufacturer's protocol. […]
Data Analyses: Mitochondrial SRC (spare respiratory capacity) was calculated by subtracting the rate of the basal respiration from the rate of the maximal respiration. […] All experiments were run in triplicate and the mean and standard deviations were calculated for each test concentration. […]
(§2) IC50 values were determined by nonlinear regression and fitting of the dose response curves to a […] equation with variable slope (Hill coefficient): […]

In the next experiment the test system is HepG2 cells. The experiment can be described thus: Cell viability, Cell Titer Fluor Assay, parallel to Seahorse assay. Format: cell-based. Particulars: Homo sapiens, 1 h, one-hour incubation, read-out: IC50, cellular viability. Here is the method: as §1
Cell viability measurements: HepG2 cells were seeded onto black-walled 96 well plates at a density of 40,000 cells/well in EMEM containing 10% HI FBS and 1× Pen/Strep and allowed to attach overnight. The next day, test compounds were prepared and diluted in EMEM. Following a one-hour incubation with the test article(s), cell viability was assessed using the Cell Titer Fluor Assay (Promega, Cat no. G6081) according to the manufacturer's protocol. The viability assay monitors activity of […], a ubiquitous protease found in live cells.
Data Analyses: Mitochondrial SRC (spare respiratory capacity) was calculated by subtracting the rate of the basal respiration from the rate of the maximal respiration. SRC values were automatically generated by the Report Generator (Agilent Technologies-version 4.0). All experiments were run in triplicate and the mean and standard deviations were calculated for each test concentration. All data were normalized to vehicle controls.
as §2

A further experiment addresses Factor XIa (Homo sapiens, UniProt P03951). The experiment can be described thus: Factor XIa inhibition assay using fluorophore-quencher pair peptide substrate. The experiment is classed as biochemical. The source says: Biological Example 1: Factor XIa Inhibition Assay
Using Fluorophore-quencher Pair Peptide Substrate
A fluorescence intensity-based assay was used to monitor inhibition of Factor XIa. The peptide substrate, 5Fam-[…]-K5Tamra (purchased from New England Peptide) was chosen based on the […]. Conversion of zymogen FIX to its activated form, FIXa, occurs by proteolytic cleavage by FXIa at two sites, Arg146 and Arg180. The custom peptide used in this assay was based on the Arg146 cleavage site. The peptide substrate was designed with a fluorophore-quencher pair, where the fluorescence is quenched until FXIa cleaves the 8-mer peptide after the Arg residue.
Factor XIa FLINT assay was used with the following 5Fam-[…]-K5Tamra assay buffer: 50 mM Tris, pH 7.5, 100 mM NaCl, 5 mM CaCl2, 0.1 mg/mL BSA, 0.03% CHAPS was used. Assay buffer was prepared by mixing all ingredients fresh. 2×5Fam-[…]-K5Tamra peptide substrate was first prepared in 100% DMSO, then diluted 10 mM to 3 mM in 100% DMSO. Assay buffer was then added directly to the 3 mM stock of substrate to prepare the 30 μM 2× working concentration (15 μM final concentration). The 2× Factor XIa stock solution was prepared by diluting 6.562 μM stock in 1× assay buffer for a 200 pM working stock solution (100 pM final concentration).
Test compound(s) were run in an 11-point, 3-fold serial dilution with a final top compound concentration of […]. Final DMSO in assay was 2% DMSO. FXIa and compound were pre-incubated for 30 minutes and substrate was then added to initiate the reaction. The assay was linear using 100 pM FXIa greater than 30 minutes. More specifically, the assay was run as follows: • 100 nL of 1 mM test compound was dispensed into a black 384-well non-binding Greiner BioOne 784900 plate for 10 μM final concentration with 1% DMSO final concentration; • 5 μL of 1× assay buffer was dispensed to column 24 (low control) and 5 μL 2× Factor XIa solution was dispensed to columns 1-23 (column 23 high control); • the plate was centrifuged with a “cover” plate at 500 rpm for 1 min • the plate was pre-incubated for 30 minutes at room temperature with plate covered; • 5 μL of 2× 5Fam-[…]-K5Tamra peptide substrate was dispensed into the entire plate, columns 1-24; • the plate was centrifuged with a cover plate at 500 rpm for 1 min; • the plate was read kinetically monitoring fluorescence intensity on the BMG PHERAStar at room temperature, using fluorescence module F1 485 mm/520 mm.
Percent inhibition (IC50) curves were generated per compound tested, and data was analyzed using a 4-parameter logistic fit using GeneData Screener. […]

Factor XIa, sequence (P03951 388-625 limits assumed): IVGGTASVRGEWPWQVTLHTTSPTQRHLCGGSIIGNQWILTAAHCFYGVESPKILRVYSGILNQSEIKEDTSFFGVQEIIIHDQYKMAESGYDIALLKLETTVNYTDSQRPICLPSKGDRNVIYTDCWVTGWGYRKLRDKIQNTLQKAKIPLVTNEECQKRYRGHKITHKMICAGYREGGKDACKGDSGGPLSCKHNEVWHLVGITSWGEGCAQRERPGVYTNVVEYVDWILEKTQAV
Factor XIa, sequence (P03951 19-387 partner limits assumed): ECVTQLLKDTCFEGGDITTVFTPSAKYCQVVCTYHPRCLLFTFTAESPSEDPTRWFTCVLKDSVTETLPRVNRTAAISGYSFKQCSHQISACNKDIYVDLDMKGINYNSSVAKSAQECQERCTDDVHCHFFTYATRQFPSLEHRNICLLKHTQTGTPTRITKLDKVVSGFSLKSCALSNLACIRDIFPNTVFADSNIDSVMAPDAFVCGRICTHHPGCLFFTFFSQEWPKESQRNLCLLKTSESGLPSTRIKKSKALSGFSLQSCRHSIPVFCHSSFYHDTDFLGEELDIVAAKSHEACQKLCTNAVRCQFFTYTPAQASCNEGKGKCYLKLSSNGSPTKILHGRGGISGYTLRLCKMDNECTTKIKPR

For `O=C1C=C(c2c(-n3cnnn3)ccc(Cl)c2F)C[C@H]2CC[C@@H](c3ncc(-c4ccnc(CO)c4F)[nH]3)N12` [Compound of formula (I-A), (3S,8aR)-7-(3-Chloro-2-fluoro-6-(1H-tetrazol-1-yl)phenyl)-3-(5-(3-fluoro-2-(hydroxymethyl)pyridin-4-yl)-1H-imidazol-2-yl)-2,3,8,8a-tetrahydroindolizin-5(1H)-one], the IC50 (in experiment [1]; with HepG2 cells) was above 100 µM in each case.
In the case of `O=C(O)c1nccc(-c2cnc([C@@H]3CC[C@@H]4CC(c5c(-n6cnnn6)ccc(Cl)c5F)=CC(=O)N43)[nH]2)c1F` [Compound of formula (II-A), 4-(2-((3S,8aR)-7-(3-chloro-2-fluoro-6-(1H-tetrazol-1-yl)phenyl)-5-oxo-1,2,3,5,8,8a-hexahydroindolizin-3-yl)-1H-imidazol-5-yl)-3-fluoropicolinic acid], the IC50 on Factor XIa was determined as 0.0003 µM.
